Measurements: article PMC6127322, “Novel Imidazole and Methoxybenzylamine Growth Inhibitors Affecting Salmonella Cell Envelope Integrity and its Persistence in Chickens” (Scientific Reports, 2018)
≈ marks a conversion by molar mass, not a printed value. Marks after values point to notes of the source that are not given here.

Assays:
Salmonella Enteritidis = assay: Dose-response assay (MBC) on Salmonella serovars; format: cell-based; conditions: Salmonella enterica; serovar Enteritidis, M9 broth
Salmonella Newport = assay: Dose-response assay (MBC) on Salmonella serovars; format: cell-based; conditions: Salmonella enterica; serovar Newport, M9 broth
Salmonella Saint-Paul = assay: Dose-response assay (MBC) on Salmonella serovars; format: cell-based, Salmonella enterica; conditions: serovar Saint-Paul, M9 broth
[1] = tested on: Salmonella enterica subsp. enterica serotype Typhimurium; assay: Checkerboard assay, SM and antibiotic combinations; format: cell-based; conditions: for MBC: Salmonella enterica, TYPHIMURIUM, SM alone, read-out: SM MBCalone; for Reduction of cefeprime MBC / Reduction of meropenem MBC: sub-lethal concentration of SM
Procedure: The potentiation effect of several antibiotics, commonly used to control Salmonella, was studied in a checkerboard assay. […] The MBC of each antibiotic was determined in M9 medium prior the experiment using a dose-response assay, as described above. For potentiation studies, 100 μl of a S. […] The MBC of each antibiotic was determined as described in the dose-response assay. Bacteria challenged with SMs or antibiotics alone at the same concentrations were used to determine the antibiotic-SM combination effects. […] Further, the bacterial suspension was plated on an agar medium and incubated at 37 °C for 36 hrs. The antibiotic-SM combination effect was calculated based on the determination of the fractional bactericidal concentration (FBC) as previously described[66],[67].

[2] = tested on: Campylobacter jejuni 81–176; assay: Activity spectrum on foodborne pathogens; format: cell-based; conditions: 200 µM
[3] = tested on: S. Typhimurium cell membrane; assay: Confocal microscopy, FM4-64 and SYTO9 staining; format: cell-based, Salmonella enterica subsp. enterica serovar Typhimurium; conditions: 5X MBC for 3 hrs, compared to DMSO control
Procedure: An overnight suspension of S. […] The effect of the SMs on S. Typhimurium was assessed using confocal microscopy as previously described. Cells were stained for 45 min using FM4–64 (2 µg/ml; […] Invitrogen). Three microliters of stained bacteria were transferred onto agarose (1.2%) -coated glass slides. Microscopy was performed using a Leica TCS SP6 confocal scanning microscope with FM4–64 (515 nm/640 nm) and SYTO-9 (485 nm/498 nm) filters.

[4] = tested on: S. Typhimurium cell surface; assay: Scanning electron microscopy (SEM); format: cell-based, Salmonella enterica subsp. enterica serovar Typhimurium; conditions: 5X MBC for 3 hrs, compared to DMSO control
Procedure: Processing of the samples for SEM was performed with the same samples as above and as previously described. Briefly, one volume of bacterial suspension was mixed with one volume of fixative (3% glutaraldehyde, 1% paraformaldehyde in 0.1 M potassium phosphate buffer pH 7.2), and incubated for 2 hrs at 4 °C. Fixed cells were centrifuged for 5 min at 1,200 g, washed twice with 1X PBS, and resuspended into 1% osmium tetroxide for 1 hr at room temperature in the dark, followed by serial dehydration of the sample in ethanol and platinum splatter-coating. Visualization and imaging of the samples was performed using a Hitachi S-4700 scanning electron microscope.

[5] = tested on: Kan^R S. Typhimurium in layer chickens; format: in vivo, chicken; conditions: for Reduction of Salmonella in the ceca: compared to the DMSO group; for Ceca positive for S. Typhimurium after enrichment / Livers positive for S. Typhimurium after enrichment / Spleens positive for S. Typhimurium after enrichment: n = 10 chickens per group
chicken cecal microbiota = assay: Cecal microbiota, 16S rRNA sequencing; format: in vivo; conditions: compared to the DMSO group, P < 0.01
Salmonella Albany = assay: Dose-response assay (MBC) on Salmonella serovars; format: cell-based; conditions: Salmonella enterica; serovar Albany, M9 broth
Salmonella Anatum = assay: Dose-response assay (MBC) on Salmonella serovars; format: cell-based; conditions: Salmonella enterica; serovar Anatum, M9 broth
Salmonella Braenderup = assay: Dose-response assay (MBC) on Salmonella serovars; format: cell-based; conditions: Salmonella enterica; serovar Braenderup, M9 broth
[6] = tested on: avian Mycoplasma gallisepticum; assay: Activity spectrum on avian pathogens; format: cell-based; conditions: 100 µM, unpublished data
[7] = tested on: S. Typhimurium in infected Caco-2, HD11, and THP-1 cell lines; assay: S. Typhimurium survival in infected cell lines, summary over lines; format: cell-based, Salmonella enterica subsp. enterica serotype Typhimurium; conditions: over the three cell lines
Procedure: The ability of four SMs to clear S. Typhimurium was evaluated using three cell lines (Caco-2 cells, HD11, and THP-1 cells) as previously described. A multiplicity of infection (MOI) of 10 was used. Infected cells were treated with 1 µl of SMs (final concentration ranged between 100 µM and 6.25 µM) and incubated at 37 °C for 24 hrs in humidified, 5% CO2 incubator. Following incubation, cells were washed once with 1X PBS, lysed with 0.1% Triton-100X, serial ten-fold diluted in 1X PBS, and plated on agar plate. Plates were incubated at 37 °C for 24 hrs to determine the intracellular bacteria. Cells not infected and not treated, and cells infected and treated with 2% DMSO were used as controls.

Bifidobacterium longum = assay: Growth of probiotic bacteria at 200 µM; format: cell-based; conditions: data not shown
Lactobacillus brevis = assay: Growth of probiotic bacteria at 200 µM; format: cell-based; conditions: data not shown
[8] = tested on: Lactobacillus rhamnosus GG; assay: Growth of probiotic bacteria at 200 µM; format: cell-based; conditions: data not shown
[9] = tested on: PhoP regulon in S. Typhimurium; parameters: method as in PubChem bioassay AID #1863, #1981, #2253, and #2401; conditions: ref PubChem bioassay AID #1863, #1981, #2253, and #2401; cited from earlier work
[10] = SM combined with nalidixic acid
[11] = compared to the DMSO-treated group

Row | Compound | MBC (Salmonella Enteritidis) [µM] | MBC (Salmonella Newport) [µM] | MBC (Salmonella Saint-Paul) [µM] | SM MBCcombined ([1]; SM combined with cefotaxime) | SM MBCcombined ([1]; SM combined with erythromycin) | MBC [1] [µM] | Reduction of cefeprime MBC [1] | Reduction of meropenem MBC [1] [fold] | Membrane phenotype, FM4–64 staining [3] | Cell surface phenotype in SEM [4] | Reduction of Salmonella in the ceca [5] | Ceca positive for S. Typhimurium after enrichment [5] [%] | Livers positive for S. Typhimurium after enrichment [5] [%] | Spleens positive for S. Typhimurium after enrichment [5] [%] | Salmonella OTUs in ceca (chicken cecal microbiota) | MBC (Salmonella Albany) [µM] | SM MBCcombined [1, 10] | Effect on Mycoplasma gallisepticum [6] | also measured
1 | CC1CCC(C(C)C)C(OC(=O)Cn2c[n+](CC(=O)OC3CC(C)CCC3C(C)C)c3ccccc32)C1 (stereo not drawn) [SM1] | 100 | 100 | 100 | 50 µM | 50 µM | 50 | at least 5 fold | 5 | No signal was detected | distorted | did not show any reduction | 90 | 40 | 50 | reduction |  |  |  | Effect on Campylobacter jejuni 81–176 [2]: lethal
2 | CCCCCCCCCCCCCCCC[n+]1ccn(CC#N)c1 [SM3] | 25 | 50 | 50 | 25^c μM | 25^c μM | 25 | at least 5 fold | 2.5 | No signal was detected |  | did not show any reduction | 80 | 60 | 50 |  | 25 | 25^c μM | lethal | MBC (Salmonella Anatum): 25 µM; MBC (Salmonella Braenderup): 25 µM; Concentration clearing internalized Salmonella [7]: 50 µM
3 | CCOc1cc(/C=N/N=C(N)N)ccc1OCc1ccc(Cl)cc1 [SM5] | 50 (≈ 17.3 µg/mL) | 50 (≈ 17.3 µg/mL) | 50 (≈ 17.3 µg/mL) | 25^c μM | 25^c μM | 25 |  |  | a bright red spot was detected within every bacterium | outer membrane vesicles of approximately 100 to 300 nm diameter |  | 70 | 40 | 30 | reduction | 100 (≈ 34.7 µg/mL) | 25^c μM | lethal | SM MBCcombined ([1]; SM combined with cefeprime): 25^c μM; SM MBCcombined ([1]; SM combined with ciprofloxacin at the concentration in the cell before): 20^b μM; SM MBCcombined ([1]; SM combined with meropenem): 25^c μM; Reduction in Salmonella population inside the ceca ([5]; 200 µg of SM per day, oral, five days): approximately 2.8 log; Reduction of cecal colonization by Salmonella [5, 11]: 30%; Reduction of spleen colonization by Salmonella [5, 11]: 25%; Effect on growth of Bifidobacterium longum (Bifidobacterium longum): did not affect the growth; Effect on growth of Lactobacillus brevis (Lactobacillus brevis): did not affect the growth; Effect on growth of Lactobacillus rhamnosus GG [8]: did not affect the growth; Activity on the PhoP regulon [9]: direct or indirect inhibitor
